US6139840A, “Methods of eliciting an antibody response using flea protease proteins and homologs thereof” (priority 1997, dated 2000)
Read-outs that look alike come from different tables or passages of the source. Blank lines part the entries; values can stand above or below the compound they belong to. Square brackets hold non-standard residues; d marks the D form. Peptide text beside a SMILES is read from it. * marks the point of attachment. Sta = CC(C)C[C@H](N)[C@@H](O)CC(=O)O; Isovaleryl = CC(C)CC(=O)*

Experiments:
[1] = tested on: flea aminopeptidase; test: Leu-AMC cleavage by serine protease-depleted flea midgut lysate; assay type: biochemical
Procedure: The starting material for the isolation of a flea aminopeptidase was a flea midgut lysate preparation that had been depleted of serine proteases by passage over a benzamidine-Sepharose affinity column. To assay for aminopeptidase activity, the synthetic substrate L-Leucine-AMC (Leu-AMC), which releases a fluorescent AMC leaving group upon proteolytic cleavage, was incubated with the serine protease-depleted flea midgut preparation. Aminopeptidase activity was easily detectable with as little as 1.2 μg of lysate, both confirming the presence of an aminopeptidase (as indicated in other Examples herein) and allowing for the detection of aminopeptidase activity in fractions collected throughout subsequent fractionation and purification procedures.

[2] = tested on: adult fleas; test: Flea feeding system: viability and fecundity of fleas fed blood containing protease inhibitors; assay type: in vivo; details: for Adult Survival Female / Adult Survival Male / Adult Survival Total / Fecundity Days 1-7: percent of corresponding control group
Procedure: This Example evaluates the effect of a number of protease inhibitors on flea viability and fecundity in a flea feeding system as described by Wade et al. ibid.
Protease inhibitor compounds were tested in groups of 3 to 6 including appropriate control groups. Inhibitors were not tested in groups of common inhibition types. Rather, they were tested in groups based on the diluent needed to dissolve them. (AEBSF, aprotinin, bestatin, leupeptin, phosphoramidon, soybean trypsin inhibitor and soybean trypsin/chymotrypsin inhibitor were dissolved in water; E-64 and pepstatin were dissolved in ethanol). This reduced the number of control (diluent only) groups needed within a particular assay. Inhibitor concentrations were chosen such that the lower concentration used was within the range recommended by the supplier for that inhibitor. The higher concentration was typically 10 times above the lower concentration and was used to look for dose response.
The general protocol for all of the assays was as follows: Approximately 2000 newly emerged adult fleas were placed in feeding chambers to feed on normal blood for about 24 to 48 hr. The fleas were prefed for two reasons: The first was to be certain that only fleas that would feed in the feeding system were used in the comparative study.
The prefed fleas were placed in "minifeeder" feeding chambers at a ratio of about 80 female fleas to about 20 male fleas for a total of about 100 fleas per chamber. Actual total number of fleas per chamber varied from about 90 to 125 fleas. […] Three chambers were prepared for each experimental and control group. A fresh blood meal containing the appropriate inhibitor in 3 ml total volume was placed on each chamber daily through the 7 day extent of an assay.
On days 3, 5, and 7 of the assay, surviving adult fleas were transferred to clean chambers. The contents of the original chambers were dissolved in about 40 ml of PBS (phosphate-buffered saline) in a 50 ml Falcon tube. The contents of a given tube were then filtered through a preweighed #1 Whatman filter disk inserted into a vacuum filter. The 50 ml tube and the filter funnel were rinsed with distilled water which was then passed through the filter. Once the chamber contents had been filtered, dead adult fleas were removed from the filter paper and placed in a labelled tube so that they could be counted and sexed. The filter paper was then placed into a preweighed 12×75 polypropylene tube and dried in the SpeedVac for 2.5 hr with the heater on. After drying the filter paper was weighed. The weight of the filter paper and tube was subtracted to obtain the dry weight of the eggs and this value was converted to an estimated number of eggs using the formula y=41384.361x+162.37, where x=dry weight of eggs.
On day 7, adult fleas that had survived the study were frozen, counted and sexed. The numbers were added to the number of male and female fleas that had died during the assay to verify the number of male and female fleas in each chamber at the start of the study.
Female, male and total adult flea survival were calculated for all experimental and control groups on days 3, 5, and 7 of each assay. Additionally, the number of eggs per surviving female was calculated on days 3, 5 and 7. Female fleas found dead on a given collection date were included in the total number of egg-laying females for the days between that date and the previous collection date, providing a conservative estimate of fecundity. Fecundity values were averaged for the three collection dates to obtain an average for each group over 7 days.
Results of these studies are presented below in Table 1 and FIG. 6 through FIG. 9. All survival and fecundity values are presented below as a percent of control value.

[3] = 1 mM pefabloc, 1 mg/ml trypsin/chymotrypsin inhibitor, 1 mg/ml trypsin inhibitor, 1 mM TPCK, 1 μg/ml pepstatin, 10 μg/ml E-64, 10 μg/ml leupeptin, 10 mM EDTA, 86 μg/ml bestatin, lysate about 1.2 μg and about 12 μg
[4] = at the concentrations tested in blood meal
[5] = 1 μg/ml in blood meal, second 1 μg/ml line under E-64
[6] = 10 μg/ml in blood meal, second 10 μg/ml line under E-64

inhibition of the flea protease that cleaved Leu-AMC [1, 3]: Only bestatin inhibited
Compound: Cc1ccc(S(=O)(=O)N[C@@H](Cc2ccccc2)C(=O)CCl)cc1 [TPCK, N-tosyl-L-phenylalanine chloromethyl ketone]

Compound: CC(C)CC(=O)N[C@H](C(=O)N[C@H](C(=O)N[C@@H](CC(C)C)[C@@H](O)CC(=O)N[C@@H](C)C(=O)N[C@@H](CC(C)C)[C@@H](O)CC(=O)O)C(C)C)C(C)C [Pepstatin A] (Isovaleryl-VV[Sta]A[Sta]-OH)
Adult Survival Female ([2]; 1 μg/ml in blood meal): 77.6%
Adult Survival Male ([2]; 1 μg/ml in blood meal): 96.6%
Adult Survival Total ([2]; 1 μg/ml in blood meal): 80.5%
Fecundity Days 1-7 ([2]; 1 μg/ml in blood meal): 67.7%
reduction in fecundity ([2]; 1 μg/ml in blood meal, significant (p<0.05)): 32%
Fecundity Days 1-7 ([2]; 10 μg/ml in blood meal): 83.9%
effect on adult viability [2, 4]: no significant effect on adult viability
inhibition of the flea protease that cleaved Leu-AMC [1]: Only bestatin inhibited

Compound: CC(C)C[C@H](NP(=O)(O)O[C@@H]1O[C@@H](C)[C@H](O)[C@@H](O)[C@H]1O)C(=O)N[C@@H](Cc1c[nH]c2ccccc12)C(=O)O [Phosphoramidon]
Adult Survival Female ([2]; 10 μg/ml in blood meal): 98.8%
Adult Survival Male ([2]; 10 μg/ml in blood meal): 95.2%
Adult Survival Total ([2]; 10 μg/ml in blood meal): 97.8%
Fecundity Days 1-7 ([2]; 10 μg/ml in blood meal): 89.0%
Adult Survival Female ([2]; 100 μg/ml in blood meal): 70.2%
Adult Survival Male ([2]; 100 μg/ml in blood meal): 64.6%
Adult Survival Total ([2]; 100 μg/ml in blood meal): 69.7%
Fecundity Days 1-7 ([2]; 100 μg/ml in blood meal): 84.9%
effect on fecundity [2, 4]: no significant reduction in fecundity
reduction in adult viability ([2]; concentration not given, not statistically significant): about 30%

Compound: Cl.NCCc1ccc(S(=O)(=O)F)cc1 [pefabloc]
inhibition of the flea protease that cleaved Leu-AMC [1, 3]: Only bestatin inhibited

Compound: CC(C)CC(NC(=O)C1OC1C(=O)O)C(=O)NCCCCNC(=N)N [E-64, trans-epoxysuccinyl-L-leucylamido-(4-guanidino)butane]
Adult Survival Female [2, 5]: 77.3%
Adult Survival Male [2, 5]: 80.0%
Adult Survival Total [2, 5]: 77.5%
Fecundity Days 1-7 [2, 5]: 95.2%
Adult Survival Female ([2]; 1 μg/ml in blood meal): 99.9%
Fecundity Days 1-7 ([2]; 1 μg/ml in blood meal): 109.4%
Adult Survival Female [2, 6]: 90.2%
Adult Survival Male [2, 6]: 91.1%
Adult Survival Total [2, 6]: 90.6%
Fecundity Days 1-7 [2, 6]: 84.1%
Fecundity Days 1-7 ([2]; 10 μg/ml in blood meal): 177.4%
effect on fecundity [2, 4]: no statistically significant reduction in fecundity
total adult flea survival ([2]; dissolved in grain alcohol, 1 μg/ml in blood): small, but significant (p<0.05), reduction
total adult flea survival ([2]; in grain alcohol, 10 μg/ml in blood): not evident
inhibition of the flea protease that cleaved Leu-AMC [1, 3]: Only bestatin inhibited
